Reference: ChEMBL document CHEMBL1157846, “Synthesis and theoretical studies on energetics of novel N- and O- perfluoroalkyl triazole tagged thienopyrimidines--their potential as adenosine receptor ligands” (Eur J Med Chem, 2010)
pKi: −log10 of the molar value.

Experiments:
[1] = target: T1, Adenosine receptor A1 (Rattus norvegicus, UniProt P25099)
T1 sequence (P25099 whole entry): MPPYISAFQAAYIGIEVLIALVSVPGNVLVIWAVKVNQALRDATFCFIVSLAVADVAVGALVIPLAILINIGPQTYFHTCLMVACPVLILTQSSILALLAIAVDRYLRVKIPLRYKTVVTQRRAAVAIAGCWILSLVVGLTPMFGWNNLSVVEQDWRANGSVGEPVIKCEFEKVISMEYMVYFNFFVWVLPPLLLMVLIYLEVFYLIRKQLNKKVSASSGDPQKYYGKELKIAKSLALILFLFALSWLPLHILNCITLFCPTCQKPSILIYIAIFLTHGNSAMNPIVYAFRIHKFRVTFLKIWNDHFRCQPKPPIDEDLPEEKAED
Description: Displacement of [3H]CCPA from adenosine A1 receptor in rat brain cortical membrane after 90 mins by scintillation counting

[2] = target: Adenosine receptor A2a (Rattus norvegicus, UniProt P30543)
Adenosine receptor A2a, sequence (P30543 whole entry): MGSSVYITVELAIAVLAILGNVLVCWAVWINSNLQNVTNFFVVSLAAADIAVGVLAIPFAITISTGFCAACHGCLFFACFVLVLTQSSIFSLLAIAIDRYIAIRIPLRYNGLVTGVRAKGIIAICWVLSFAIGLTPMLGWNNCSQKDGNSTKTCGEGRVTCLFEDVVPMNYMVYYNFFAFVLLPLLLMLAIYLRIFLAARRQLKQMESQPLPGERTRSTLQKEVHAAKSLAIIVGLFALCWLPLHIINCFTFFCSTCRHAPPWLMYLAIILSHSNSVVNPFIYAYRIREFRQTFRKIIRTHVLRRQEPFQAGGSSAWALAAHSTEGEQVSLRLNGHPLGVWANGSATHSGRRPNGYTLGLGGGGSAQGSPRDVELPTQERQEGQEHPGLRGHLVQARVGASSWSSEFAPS
Description: Displacement of [3H]MSX-2 from adenosine A2A receptor in rat brain striatal membrane after 30 mins by scintillation counting

Row | SMILES | pKi [1] | pKi [2]
1 | C#CCn1c(C)nc2sc(C)c(C)c2c1=O | 8.22 | 5.42
2 | C#CCn1c(C)nc2sc3c(c2c1=O)CCC3 | 8.22 | 7.74
3 | C#CCOc1nc(-c2ccccc2)nc2sc3c(c12)CCCC3 |  | 8.52
4 | C#CCn1c(Cc2ccc(F)cc2)nc2sc(C)c(C)c2c1=O | 8.40 | 5.12
5 | C#CCn1c(-c2ccccc2)nc2sc(C)c(C)c2c1=O |  | 7.54
6 | C#CCn1c(C)nc2sc3c(c2c1=O)CCCC3 |  | 8.15
7 | C#CCn1c(-c2ccccc2)nc2sc3c(c2c1=O)CCC3 | 8.30 | 5.01
8 | C#CCn1c(Cc2ccc(F)cc2)nc2sc3c(c2c1=O)CCCC3 | 7.68 | 7.85
